For orientation: IC50 means the point on the concentration scale where inhibition reaches its midpoint. A high value points to weaker potency.

Experimental findings from the Kinase Knowledgebase extract (Sharma et al. 2016) are described below.

Targets include PIK3CB (Human) (UniProt P42338); PIK3CD (Human) (UniProt O00329); PIK3CG (human) (UniProt P48736).
Holding throughout (assay): Enzyme Assay

Chain of PIK3CD (Human) (O00329 whole entry, looked up): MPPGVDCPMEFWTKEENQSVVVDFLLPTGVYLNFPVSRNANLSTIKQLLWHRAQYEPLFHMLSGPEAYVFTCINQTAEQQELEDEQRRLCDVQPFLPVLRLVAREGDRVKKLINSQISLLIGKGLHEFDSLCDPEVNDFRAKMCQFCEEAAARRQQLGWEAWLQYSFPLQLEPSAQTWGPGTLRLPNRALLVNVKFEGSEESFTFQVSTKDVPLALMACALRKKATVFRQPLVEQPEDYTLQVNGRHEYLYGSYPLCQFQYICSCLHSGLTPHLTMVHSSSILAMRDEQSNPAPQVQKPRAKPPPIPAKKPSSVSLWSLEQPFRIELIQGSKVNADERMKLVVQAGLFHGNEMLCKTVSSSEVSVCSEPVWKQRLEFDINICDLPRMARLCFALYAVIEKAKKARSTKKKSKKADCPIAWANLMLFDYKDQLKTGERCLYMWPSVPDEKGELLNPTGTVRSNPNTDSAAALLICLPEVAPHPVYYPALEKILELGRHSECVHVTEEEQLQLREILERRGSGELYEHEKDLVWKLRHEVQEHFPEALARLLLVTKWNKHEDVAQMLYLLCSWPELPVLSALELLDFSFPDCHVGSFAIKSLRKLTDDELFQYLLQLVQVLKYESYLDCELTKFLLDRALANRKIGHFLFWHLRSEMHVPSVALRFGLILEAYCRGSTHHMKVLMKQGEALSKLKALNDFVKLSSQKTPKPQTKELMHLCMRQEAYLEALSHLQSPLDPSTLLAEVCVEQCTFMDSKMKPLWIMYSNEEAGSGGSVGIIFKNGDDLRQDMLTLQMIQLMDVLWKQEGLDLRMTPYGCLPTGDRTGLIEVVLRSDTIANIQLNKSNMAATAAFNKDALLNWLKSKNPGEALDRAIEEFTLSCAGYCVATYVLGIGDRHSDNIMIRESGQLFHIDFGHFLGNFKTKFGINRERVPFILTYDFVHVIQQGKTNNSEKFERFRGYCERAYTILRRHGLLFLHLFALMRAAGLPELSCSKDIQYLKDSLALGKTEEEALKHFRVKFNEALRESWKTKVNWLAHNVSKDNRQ
Chain of PIK3CB (Human) (P42338 whole entry, looked up): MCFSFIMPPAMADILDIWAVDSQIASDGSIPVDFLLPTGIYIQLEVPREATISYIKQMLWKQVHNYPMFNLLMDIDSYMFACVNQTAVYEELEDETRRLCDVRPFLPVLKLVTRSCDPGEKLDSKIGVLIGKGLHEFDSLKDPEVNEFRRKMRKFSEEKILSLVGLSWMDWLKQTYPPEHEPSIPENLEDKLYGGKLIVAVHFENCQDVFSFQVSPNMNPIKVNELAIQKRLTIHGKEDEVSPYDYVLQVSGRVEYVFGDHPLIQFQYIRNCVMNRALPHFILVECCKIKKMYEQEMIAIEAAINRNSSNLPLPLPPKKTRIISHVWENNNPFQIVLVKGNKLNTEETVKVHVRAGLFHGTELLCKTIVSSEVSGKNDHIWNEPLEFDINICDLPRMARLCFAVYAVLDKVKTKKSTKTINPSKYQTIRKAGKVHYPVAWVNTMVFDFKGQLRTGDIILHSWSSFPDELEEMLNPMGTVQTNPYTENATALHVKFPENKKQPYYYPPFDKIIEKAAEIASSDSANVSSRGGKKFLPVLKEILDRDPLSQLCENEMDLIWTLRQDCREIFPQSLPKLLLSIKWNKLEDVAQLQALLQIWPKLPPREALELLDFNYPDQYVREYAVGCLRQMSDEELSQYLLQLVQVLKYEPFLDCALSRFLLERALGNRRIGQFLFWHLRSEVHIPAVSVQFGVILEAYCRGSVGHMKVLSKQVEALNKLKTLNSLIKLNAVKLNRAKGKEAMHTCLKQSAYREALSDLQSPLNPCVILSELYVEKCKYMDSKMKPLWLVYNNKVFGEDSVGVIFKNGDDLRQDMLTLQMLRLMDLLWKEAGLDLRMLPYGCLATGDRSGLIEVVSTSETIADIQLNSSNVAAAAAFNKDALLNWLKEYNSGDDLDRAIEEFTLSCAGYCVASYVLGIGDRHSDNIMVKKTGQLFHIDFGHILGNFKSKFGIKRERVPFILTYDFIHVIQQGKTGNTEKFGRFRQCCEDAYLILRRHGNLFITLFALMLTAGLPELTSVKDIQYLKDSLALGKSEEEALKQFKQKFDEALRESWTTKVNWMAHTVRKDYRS
Chain of PIK3CG (human) (P48736 whole entry, looked up): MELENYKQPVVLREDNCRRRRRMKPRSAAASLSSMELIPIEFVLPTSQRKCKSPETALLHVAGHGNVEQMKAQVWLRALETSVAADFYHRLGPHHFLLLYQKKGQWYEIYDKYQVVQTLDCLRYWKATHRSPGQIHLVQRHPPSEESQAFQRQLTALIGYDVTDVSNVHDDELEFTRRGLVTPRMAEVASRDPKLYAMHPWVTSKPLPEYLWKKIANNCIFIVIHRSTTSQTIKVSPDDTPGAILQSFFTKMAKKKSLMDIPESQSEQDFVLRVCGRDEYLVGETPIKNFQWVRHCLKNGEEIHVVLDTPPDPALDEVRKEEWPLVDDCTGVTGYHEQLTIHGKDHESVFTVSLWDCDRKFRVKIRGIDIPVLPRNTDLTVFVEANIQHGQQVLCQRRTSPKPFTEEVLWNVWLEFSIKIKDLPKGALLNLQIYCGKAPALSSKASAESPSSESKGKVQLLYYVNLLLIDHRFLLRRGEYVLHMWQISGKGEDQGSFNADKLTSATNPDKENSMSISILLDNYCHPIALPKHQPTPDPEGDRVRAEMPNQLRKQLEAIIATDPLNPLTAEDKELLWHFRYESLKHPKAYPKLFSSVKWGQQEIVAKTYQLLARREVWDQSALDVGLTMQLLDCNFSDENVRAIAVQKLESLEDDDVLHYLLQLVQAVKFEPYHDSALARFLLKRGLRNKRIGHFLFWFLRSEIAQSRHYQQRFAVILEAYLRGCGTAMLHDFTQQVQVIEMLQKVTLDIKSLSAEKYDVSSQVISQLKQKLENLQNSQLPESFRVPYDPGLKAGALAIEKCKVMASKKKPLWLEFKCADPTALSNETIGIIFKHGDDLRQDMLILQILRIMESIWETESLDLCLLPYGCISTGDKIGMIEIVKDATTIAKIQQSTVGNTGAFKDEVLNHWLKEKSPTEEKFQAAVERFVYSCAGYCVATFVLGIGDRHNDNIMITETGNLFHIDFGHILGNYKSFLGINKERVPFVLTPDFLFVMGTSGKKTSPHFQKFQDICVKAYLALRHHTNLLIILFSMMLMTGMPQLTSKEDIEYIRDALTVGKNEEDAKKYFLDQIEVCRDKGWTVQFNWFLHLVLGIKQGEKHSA

Regarding `N#Cc1c(N)nc(N)nc1N1CCC[C@H]1c1nc2c(Cl)ccc(Cl)c2c(=O)n1-c1cccc(C(N)=O)c1`, the IC50 on PIK3CB (Human) came out at 51 nM; at PIK3CD (Human), 2 nM; against PIK3CG (human), 1.4 µM.

In the case of `COCCNC(=O)Nc1cccc(-n2c([C@@H]3CCCN3c3ncnc(N)c3C#N)nc3cccc(Cl)c3c2=O)c1`, the values for the IC50 on PIK3CB (Human), against PIK3CD (Human) and against PIK3CG (human) were 97 nM, 38 nM and 7.8 µM, respectively.

In turn, `CCNC(=O)Nc1ccc(Cl)c(-n2c([C@H](C)Nc3ncnc(N)c3C#N)nc3cccc(Cl)c3c2=O)c1` yielded an IC50 at PIK3CG (human) of more than 10 µM.

On to `C[C@H](Nc1ncnc(N)c1C#N)c1nc2cccc(Cl)c2c(=O)n1-c1cccc(NC(=O)Nc2cccnc2C(F)(F)F)c1`, for which the IC50 on PIK3CB (Human) stood at 23 nM; at PIK3CD (Human) it was 11 nM; against PIK3CG (human) it was 3.9 µM.

`N#Cc1c(N)ncnc1N1CCC[C@H]1c1nc2cccc(Cl)c2c(=O)n1-c1cccc(NC(=O)Nc2ccccn2)c1`: the IC50 against PIK3CB (Human) was 420 nM; on PIK3CD (Human), 49 nM; on PIK3CG (human), 7.4 µM.
